Experiment [1] relates to enkephalin-binding receptor on cells of the immune system. The conditions noted are these: in words; cited from earlier work.
Experiment [2] concerns the target T1, κ opioid receptor (Mus musculus, UniProt P33534).
T1 construct: evaluated in mice using the tail flick assay; from tissue; host or cells: living mice (i.c.v. injection)
The experiment can be described thus: tail flick assay, antagonism of antinociception by U50488H. Format: in vivo, mice. As to conditions: BNTX 6.25 pmol/i.c.v./mouse. The method, then: (§1) The antagonist effect of BNTX on antinociceptin was evaluated in mice using the tail flick assay, in accord with the procedure of F. C. Tulunay et al., J. Pharmacol. Exp. Ther., 243, 91 (1987). At least three groups of ten mice were used to generate dose-response curves. A mouse was regarded as positive for antinociception if the latency to flick its tail was more than the control latency plus 3 S.D. of the mean reaction time of the group. The reaction times were determined at the peak time for antinociception after administration of various agonists. Intracerebroventricular (i.c.v.) injections were made in a volume of 5 μl by the method of T. J. Haley et al., Br. J. Pharmacol., 12, 12 (1957).
(§2) On Table VIII, the potencies are expressed as ED50 ratios, which represent the ED50 of the standard agonist administered subcutaneously in the presence of BNTX (6.25 pmol/i.c.v./mouse), divided by the ED50 of the standard agonist.
On the technique in general: Thermal pain tests record how soon the animal reacts.

The target in experiment [3] is T2, κ opioid receptor (Cavia porcellus, UniProt P41144).
T2 construct: a strip of longitudinal muscle with the myenteric plexus attached was prepared; from tissue; host or cells: guinea pig ileum longitudinal muscle with myenteric plexus
T2 sequence (P41144 whole entry): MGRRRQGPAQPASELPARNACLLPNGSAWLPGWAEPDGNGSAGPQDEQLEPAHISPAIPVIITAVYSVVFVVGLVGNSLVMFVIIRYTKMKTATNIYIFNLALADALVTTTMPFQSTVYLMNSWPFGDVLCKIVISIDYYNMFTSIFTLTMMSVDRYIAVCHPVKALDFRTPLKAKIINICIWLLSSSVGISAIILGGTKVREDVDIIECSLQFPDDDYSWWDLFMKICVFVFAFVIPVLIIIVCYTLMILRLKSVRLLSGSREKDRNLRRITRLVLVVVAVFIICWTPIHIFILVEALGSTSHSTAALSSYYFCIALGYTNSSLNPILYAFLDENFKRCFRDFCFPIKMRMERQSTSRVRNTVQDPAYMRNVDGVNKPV
The experiment can be described thus: antagonism of ethylketazocine in the GPI (Example 7). Format: cell-based, guinea pig. The conditions noted are these: ethylketazocine as agonist, read-out: Ke, κ (Table VII). The procedure:
(§3) 1. Guinea Pig Ileal Longitudinal Muscle (GPI). Ilea from guinea pigs were taken approximately 10 cm from the ileocaecal junction, and a strip of longitudinal muscle with the myenteric plexus attached was prepared by method of Rang et al., Brit. J. Pharmacol., 22, 356 (1964), the disclosure of which is incorporated by reference herein. A 1 cm portion of this strip was then mounted between two platinum electrodes placed in a 10 ml organ bath and connected to an isometric transducer. Contractions were recorded on a polygraph. […] The organ bath was maintained at 36°-37° C. The longitudinal muscle strip was allowed to equilibrate with continuous stimulation for a minimum of 90 min.

For another experiment, the target named is T3, δ opioid receptor (Mus musculus, UniProt P32300).
T3 construct: Both vasa deferentia were dissected out of mice; from tissue; host or cells: mouse vas deferens (isolated, electrically stimulated)
T3 sequence (P32300 whole entry): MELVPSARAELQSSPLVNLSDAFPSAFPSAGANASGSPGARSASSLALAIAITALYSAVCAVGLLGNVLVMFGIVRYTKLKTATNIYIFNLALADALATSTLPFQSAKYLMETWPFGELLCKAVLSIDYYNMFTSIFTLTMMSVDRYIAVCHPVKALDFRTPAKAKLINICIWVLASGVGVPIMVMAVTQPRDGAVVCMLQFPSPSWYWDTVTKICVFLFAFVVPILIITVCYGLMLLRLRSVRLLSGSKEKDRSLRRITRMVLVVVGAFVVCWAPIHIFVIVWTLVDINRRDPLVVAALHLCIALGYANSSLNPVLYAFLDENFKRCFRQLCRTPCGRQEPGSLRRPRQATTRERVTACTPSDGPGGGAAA
Description: antagonism of DADLE on MVD preparations (Example 7). Format: cell-based. The method, then: 2. Mouse Vas Deferens (MVD). […] The organ bath was maintained at 37° C.
(§4) Concentration-response curves were obtained in the absence (control) and the presence of the antagonist are expressed as IC50 values. […] Therefore, a high IC50 ratio represents a correspondingly high degree of antagonism at a particular receptor. […] Therefore, a low Ke represents a correspondingly high degree of binding at a particular receptor.

For experiment [4], the target named is μ opioid receptor (Cavia porcellus, UniProt A0ACM8Q262). The experiment can be described thus: antagonism of morphine in the GPI (Example 7). Format: cell-based, guinea pig. As to conditions: morphine as agonist, read-out: Ke, μ (Table VII). The method, then: as §3
μ opioid receptor (Cavia porcellus, UniProt A0ACM8Q262), sequence (A0ACM8Q262 1-400): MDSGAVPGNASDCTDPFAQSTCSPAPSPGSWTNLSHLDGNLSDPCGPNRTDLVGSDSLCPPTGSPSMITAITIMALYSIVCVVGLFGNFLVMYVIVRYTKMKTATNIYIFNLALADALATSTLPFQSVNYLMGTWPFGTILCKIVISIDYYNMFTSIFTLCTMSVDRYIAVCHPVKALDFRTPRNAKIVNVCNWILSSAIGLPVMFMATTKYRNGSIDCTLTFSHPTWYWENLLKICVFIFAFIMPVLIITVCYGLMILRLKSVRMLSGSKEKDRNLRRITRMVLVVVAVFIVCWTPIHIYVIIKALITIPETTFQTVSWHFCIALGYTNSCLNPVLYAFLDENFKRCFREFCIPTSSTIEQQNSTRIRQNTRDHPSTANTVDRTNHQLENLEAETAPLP
In another experiment the target is T4, δ1 opioid receptor (Mus musculus, UniProt P32300).
T4 construct: Both vasa deferentia were dissected out of mice; from tissue; host or cells: smooth muscle preparation, inferred mouse vas deferens
T4 sequence (P32300 whole entry): as the sequence (P32300 whole entry) above
Description: antagonism of DPDPE in smooth muscle. The class given is cell-based. As to conditions: Table VIII, read-out: Smooth Muscle Ke, DPDPE (δ1).
Text: as §4

Experiment [5] addresses T5, δ2 opioid receptor (Mus musculus, UniProt P32300). Description: tail flick assay, antagonism of antinociception by DSLET. Format: in vivo, mice. Also noted: evaluated in mice using the tail flick assay; from tissue; host or cells: living mice (i.c.v. injection). The conditions noted are these: BNTX 6.25 pmol/i.c.v./mouse. The procedure:
as §1, §2

The target of a further experiment is μ receptors (Cavia porcellus, UniProt A0ACM8Q262). Description: binding to guinea pig brain membranes, [3H]DAMGO.
μ receptors, sequence (A0ACM8Q262 1-400): as the sequence (A0ACM8Q262 1-400) above
Experiment [6] addresses T6, μ opioid receptor (Mus musculus, UniProt P42866).
T6 construct: evaluated in mice using the tail flick assay; from tissue; host or cells: living mice (i.c.v. injection)
Description: tail flick assay, antagonism of antinociception by μ agonist. The conditions noted are these: BNTX 6.25 pmol/i.c.v./mouse. Format: in vivo, mice. The method, then:
as §1, §2

A further experiment concerns the target T7, δ2 receptors (Cavia porcellus, UniProt A0A286XTF2).
T7 construct: guinea pig brain membranes; from tissue; host or cells: guinea pig brain membranes
Description: binding to guinea pig brain membranes, [3H]DSLET. The procedure: (§5) Therefore, a better assessment of the δ subtype selectivity can be obtained from binding of brain membranes and from antagonism studies in mice. The binding of BNTX to guinea pig brain membranes was determined using the general method of L. L. Werling et al., J. Pharmacol. Exp. Ther., 233, 722 (1985), as modified by A. E. Takemori et al., J. Pharmacol. Exp. Ther., 246, 255 (1988). The radio-ligands employed were [^3 H]DPDPE ([D-Pen^2, D-Pen^5 ] enkephalin) for δ1receptors, [^3 H]DSLET([D-Ser^2 -Leus]enkephalin-Thr^6) for δ^2 receptors, [3H]DAMGO for μ receptors and U69593(trans-(±)-3,4-dichloro-N-methyl-N-[2-(lpyrididinyl)cyclohexyl]benzeneacetamide) for κ receptors.

For experiment [7], the target named is T5, δ2 opioid receptor. Description: antagonism of DSLET in smooth muscle. The class given is cell-based. Also noted: Both vasa deferentia were dissected out of mice; from tissue; host or cells: smooth muscle preparation, inferred mouse vas deferens. As to conditions: Table VIII, read-out: Smooth Muscle Ke, DSLET (δ2).
Text: as §4

For another experiment, the target named is T8, δ1 receptors (Cavia porcellus, UniProt A0A286XTF2).
T8 construct: guinea pig brain membranes; from tissue; host or cells: guinea pig brain membranes
T8 sequence (A0A286XTF2 1-366): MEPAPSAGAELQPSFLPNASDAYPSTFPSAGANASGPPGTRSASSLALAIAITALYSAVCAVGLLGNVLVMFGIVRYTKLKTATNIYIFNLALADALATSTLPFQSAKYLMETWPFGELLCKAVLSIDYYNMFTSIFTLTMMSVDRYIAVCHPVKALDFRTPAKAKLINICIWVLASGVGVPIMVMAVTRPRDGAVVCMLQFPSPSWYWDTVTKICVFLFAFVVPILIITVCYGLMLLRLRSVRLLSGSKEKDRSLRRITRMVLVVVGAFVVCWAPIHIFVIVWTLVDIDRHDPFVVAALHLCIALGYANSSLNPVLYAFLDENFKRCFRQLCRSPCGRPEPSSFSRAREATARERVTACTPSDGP
Description: binding to guinea pig brain membranes, [3H]DPDPE. The procedure:
as §5

Entries after “also recorded” stand apart in the source; their conditions may differ.

T5 sequence (P32300 whole entry): as the sequence (P32300 whole entry) above
T6 sequence (P42866 whole entry): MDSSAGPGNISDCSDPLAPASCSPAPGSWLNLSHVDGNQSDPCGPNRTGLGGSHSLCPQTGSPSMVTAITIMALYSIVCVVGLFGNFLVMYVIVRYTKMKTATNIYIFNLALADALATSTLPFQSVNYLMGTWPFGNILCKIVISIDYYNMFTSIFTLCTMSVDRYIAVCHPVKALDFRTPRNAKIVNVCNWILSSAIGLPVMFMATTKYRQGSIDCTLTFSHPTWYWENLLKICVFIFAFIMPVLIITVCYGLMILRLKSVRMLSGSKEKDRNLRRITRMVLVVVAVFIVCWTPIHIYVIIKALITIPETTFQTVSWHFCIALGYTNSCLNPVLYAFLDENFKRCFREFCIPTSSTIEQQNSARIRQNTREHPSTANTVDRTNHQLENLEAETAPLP
T1 sequence (P33534 whole entry): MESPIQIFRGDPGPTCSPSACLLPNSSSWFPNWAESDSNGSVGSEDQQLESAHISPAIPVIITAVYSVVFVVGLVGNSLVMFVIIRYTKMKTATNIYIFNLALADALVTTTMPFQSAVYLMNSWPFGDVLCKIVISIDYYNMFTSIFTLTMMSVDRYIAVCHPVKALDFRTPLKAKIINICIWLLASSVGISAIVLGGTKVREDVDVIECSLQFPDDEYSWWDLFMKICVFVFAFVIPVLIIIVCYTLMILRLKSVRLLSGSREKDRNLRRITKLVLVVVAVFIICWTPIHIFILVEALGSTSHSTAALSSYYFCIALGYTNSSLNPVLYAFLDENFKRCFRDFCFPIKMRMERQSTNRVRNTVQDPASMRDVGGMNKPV
T7 sequence (A0A286XTF2 1-366): as the sequence (A0A286XTF2 1-366) above

For the compound `C=CCN1CC[C@]23c4c5ccc(O)c4O[C@H]2C(=O)CC[C@@]3(O)[C@H]1C5` [naloxone], the “block of many of the effects of enkephalins on immune function” value in [1] was “blocked”.

For `O=C1C(=Cc2ccccc2)C[C@@]2(O)[C@H]3Cc4ccc(O)c5c4[C@@]2(CCN3CC2CC2)[C@H]1O5` [BNTX, 7-Benzylidene-7-dehydronaltrexone], on κ opioid receptor [2], the “ED50 Ratio ("Potency Ratio"), U50488H” value is given as 1.2. In addition, at κ opioid receptor [2] (in words), the “shift of the U50488H dose-response curve” value is “not shifted significantly”. For the same compound, the Kb at κ opioid receptor [3] was determined as 100 nM; at δ opioid receptor, 2.9 nM; on μ opioid receptor [4], 8.3 nM; on δ1 opioid receptor, 5.2 nM; at δ2 opioid receptor [7], 2.1 nM. Further, on δ opioid receptor (GPI ethylketazocine / MVD DADLE), the “Ke Ratio κ/δ” value came to 35. Also, at δ opioid receptor (GPI morphine / MVD DADLE), the “Ke Ratio μ/δ” value is reported as 2.9. Also, the “Ke ratios compared with NTI and naltrexone, in words” value on δ opioid receptor (Table VII data) was “less than those of the standard δ agonist NTI, but greater than those of naltrexone”. For the same compound, the “receptor selectivity in words” value at δ opioid receptor (Table VII data) is recorded as “δ-selective antagonist”. Besides, the “ED50 Ratio ("Potency Ratio"), DSLET” value on δ2 opioid receptor [5] stood at 0.91. Further, on δ2 opioid receptor [5] (in words), the “shift of the DSLET dose-response curve” value is “not shifted significantly”. Also, the Ki (in general, a dissociation constant, usually derived from enzyme kinetics or from competition with a known ligand) on μ receptors is 13.3 nM; at δ2 receptors it was 10.8 nM; at δ1 receptors (guinea pig brain membranes), 0.1 nM. In addition, the “ED50 Ratio ("Potency Ratio"), DAMGO row” value on μ opioid receptor [6] was determined as 0.88. Besides, the “shift of the morphine dose-response curve” value at μ opioid receptor [6] (in words) is given as “not shifted significantly”. Further, at δ1 receptors (binding), the “δ1 selectivity in words” value is “highly selective for δ1 receptor sites; also recorded: first δ1 opioid receptor subset-selective antagonist”. On δ1 receptors (guinea pig brain membranes), the “binding ratio, Ki(δ2)/Ki(δ1)” value was “about 100”.

These data come from patent US5631263A, “Use of delta opioid receptor antagonists to treat immunoregulatory disorders” (Minneapolis Medical Research Foundation, priority 1995, dated 1997).
